Test results from publication PMC7784547 (Bioorganic Chemistry, 2021).

How the values were obtained:
[1] = test system: A/Puerto Rico/8/34 (H1N1) with the NA-H274Y mutation; format: cell-based, influenza A virus; conditions: read-out: IC50 ± SD, 274
[2] = test system: influenza A/PR/8/34 (H1N1) virus; format: cell-based

Compound	IC50 [1]	IC50 after passage of ten generations [2]
C=Cc1c(C)c2cc3nc(c4c5[nH]c(cc6nc(cc1[nH]2)C(C)=C6CC)c(C)c5C(=O)C4)[C@@H](CCC(=O)O)[C@@H]3C [PPa, pyropheophorbide a, reference compound]	1.05 ± 0.99 µM	
protoporphyrin IX [PPIX]	1.24 ± 0.53 µM	2.18 ± 0.71 µg/mL
